Among the test systems are HCC-2998 colon; HOP-92 NSCLC; K-562 leukemia; KM12 colon; NCI-H522 lung; OVCAR-3 ovarian; SF-268 CNS; SK-OV-3 ovarian; SK-MEL-28 melanoma.
What all share (experiment): NCI anticancer screen, dose series, 48 h

This is an account of results in PubChem BioAssay (NCI).

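Briefly, cells in 96-well plates were exposed to five compound concentrations for 48 h, and endpoints were estimated by linear interpolation. Abbreviation: GI50, concentration required for 50% inhibition of growth. TGI: total growth inhibition.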

In the case of `N#CC(C#N)=C1NC(=O)C(c2ccccc2)C(=O)N1` (stereo not given), the TGI in the test with HCC-2998 colon, in the test with HOP-92 NSCLC, with K-562 leukemia, in the test on KM12 colon, in the test on NCI-H522 lung and in the test on OVCAR-3 ovarian was greater than 100 µM in each case. Besides, the TGI in the test on SF-268 CNS and in the test with SK-OV-3 ovarian was greater than 100 µM throughout.
As to `O=C(OCCOCCOC(=O)c1c[nH]cc1-c1ccccc1)c1c[nH]cc1-c1ccccc1`, the TGI in the test with HCC-2998 colon is 42.4 µM; in the test on HOP-92 NSCLC it was 47.8 µM; in the test with K-562 leukemia, greater than 100 µM; with KM12 colon, 44.7 µM; in the test on NCI-H522 lung, 29.6 µM; with OVCAR-3 ovarian, 50 µM. The TGI in the test with SF-268 CNS came out at 40 µM; in the test on SK-OV-3 ovarian it was 84.4 µM.
With `CCOc1ccc(NC(=O)C2=C(C)NC(C)=C(C(=O)Nc3ccc(OCC)cc3)C2c2ccc([N+](=O)[O-])cc2)cc1`, the TGI is 52.7 µM with HCC-2998 colon; 58.6 µM in the test with HOP-92 NSCLC; greater than 100 µM with K-562 leukemia; greater than 100 µM with KM12 colon; greater than 100 µM in the test with NCI-H522 lung; greater than 100 µM with OVCAR-3 ovarian. For the same molecule, the TGI with SF-268 CNS, in the test on SK-MEL-28 melanoma and with SK-OV-3 ovarian was greater than 100 µM in each case.
`C[Si](C)(C)/C(Br)=C\CCN1C(=O)CCC1O` (stereo not given): the TGI in the test on HOP-92 NSCLC, in the test on K-562 leukemia, with KM12 colon, with NCI-H522 lung, with OVCAR-3 ovarian and in the test on SF-268 CNS was greater than 100 µM in each case. Further, the TGI in the test on SK-MEL-28 melanoma and with SK-OV-3 ovarian was greater than 100 µM throughout.
As to `CC(CN(CP(=O)([O-])[O-])CP(=O)([O-])[O-])N(CP(=O)([O-])[O-])CP(=O)([O-])[O-].N[C@@H]1CCCC[C@@H]1N.[Pt+2]` (stereo not given), the GI50 with HCC-2998 colon, in the test with HOP-92 NSCLC, with K-562 leukemia, in the test with KM12 colon, in the test on NCI-H522 lung and in the test on OVCAR-3 ovarian was greater than 100 µM throughout. In addition, the GI50 in the test on SF-268 CNS, with SK-MEL-28 melanoma and with SK-OV-3 ovarian was greater than 100 µM in each case. In addition, the TGI with HCC-2998 colon, in the test with HOP-92 NSCLC, in the test on K-562 leukemia, with KM12 colon, with NCI-H522 lung and with OVCAR-3 ovarian was greater than 100 µM throughout. Also, the TGI in the test with SF-268 CNS, in the test with SK-MEL-28 melanoma and with SK-OV-3 ovarian was greater than 100 µM in each case.
On to `Cn1cc(C(=O)C2CCCCC2)ccc1=O`, for which the TGI in the test on HCC-2998 colon, in the test with HOP-92 NSCLC, with K-562 leukemia, in the test on KM12 colon, in the test on NCI-H522 lung and in the test on OVCAR-3 ovarian was greater than 100 µM each time. Besides, the TGI with SF-268 CNS, in the test on SK-MEL-28 melanoma and in the test on SK-OV-3 ovarian was greater than 100 µM throughout.
`CC(=O)OCCOCNC(=S)N/N=C(\C)c1ccco1`: the TGI in the test on HCC-2998 colon, with K-562 leukemia, in the test on KM12 colon, in the test on NCI-H522 lung, with OVCAR-3 ovarian and in the test on SF-268 CNS was greater than 100 µM each time. For the same molecule, the TGI in the test with SK-MEL-28 melanoma and in the test on SK-OV-3 ovarian was greater than 100 µM throughout.
In the case of `Cc1ccc(S(=O)(=O)N2CCCCC2CCO)cc1` (stereo not given), the TGI with HCC-2998 colon, in the test with HOP-92 NSCLC, in the test with K-562 leukemia, in the test on KM12 colon, in the test on NCI-H522 lung and with OVCAR-3 ovarian was greater than 100 µM in each case. Further, the TGI in the test with SF-268 CNS and in the test with SK-OV-3 ovarian was greater than 100 µM in each case.
As for `O=C(CC1C(=O)Nc2ccccc2S1=O)Nc1cccc(Cl)c1` (stereo not given), the TGI in the test on HCC-2998 colon is greater than 100 µM; in the test on HOP-92 NSCLC, 53.8 µM; in the test on K-562 leukemia, 29.2 µM; in the test on KM12 colon it was greater than 81.5 µM; in the test on OVCAR-3 ovarian, greater than 79.2 µM; in the test with SF-268 CNS, greater than 100 µM. Further, the TGI with SK-MEL-28 melanoma and with SK-OV-3 ovarian was greater than 100 µM throughout.
For the molecule `C[C@H](NC(=O)OC1C2C=CC(O)C1CC2)c1ccccc1` (stereo not given in full), the TGI with HCC-2998 colon, with K-562 leukemia, with KM12 colon, in the test on NCI-H522 lung, in the test with OVCAR-3 ovarian and with SF-268 CNS was greater than 100 µM in each case. Also, the TGI in the test with SK-MEL-28 melanoma and with SK-OV-3 ovarian was greater than 100 µM in each case.
On to `CC(=O)OC1COC(N2C(=O)C(=O)c3cc(Br)c([N+](=O)[O-])cc32)C(OC(C)=O)C1OC(C)=O` (stereo not given), for which the TGI in the test with HCC-2998 colon was greater than 100 µM; with HOP-92 NSCLC, 93.3 µM; in the test on K-562 leukemia, 72.4 µM; in the test on KM12 colon it was greater than 100 µM; in the test with NCI-H522 lung it was greater than 100 µM; with OVCAR-3 ovarian, greater than 100 µM. The TGI in the test on SF-268 CNS, in the test on SK-MEL-28 melanoma and in the test on SK-OV-3 ovarian was greater than 100 µM in each case.
Consider `CCN(CCCl)CCNc1c2ccccc2nc2ccc(OC)cc12`, for which the TGI worked out at 2.15 µM with HCC-2998 colon; 2.43 µM in the test on HOP-92 NSCLC; 2.51 µM with K-562 leukemia; 3.11 µM in the test with KM12 colon; 1.71 µM in the test with NCI-H522 lung; 4.71 µM with OVCAR-3 ovarian. For the same molecule, the TGI in the test on SF-268 CNS came to 2.59 µM; in the test on SK-MEL-28 melanoma it was 3.67 µM; in the test with SK-OV-3 ovarian it was 3.81 µM.
As for `CC(=O)O[C@H]1CC[C@@]2(C)C(=CC[C@@H]3C2CC[C@]2(C)Nc4oncc4CC32)C1` (stereo not given in full), the TGI in the test on HCC-2998 colon is greater than 100 µM; in the test with K-562 leukemia it was 21.1 µM; in the test with KM12 colon, 61.4 µM; with OVCAR-3 ovarian it was 30.7 µM; in the test on SK-MEL-28 melanoma, greater than 100 µM; with SK-OV-3 ovarian it was greater than 100 µM.
`Cc1ccccc1NC(=O)c1[nH]c(=S)nc(N)c1-c1ccccc1C`: the TGI in the test with HCC-2998 colon, in the test with HOP-92 NSCLC, in the test with K-562 leukemia, in the test on KM12 colon, with NCI-H522 lung and in the test with OVCAR-3 ovarian was greater than 100 µM throughout. The TGI in the test with SF-268 CNS, with SK-MEL-28 melanoma and in the test with SK-OV-3 ovarian was greater than 100 µM in each case.
